Experimental data from patent publication US7553864B2, “Compounds for the treatment of inflammatory disorders and microbial diseases” (Schering Corporation, priority 2005, dated 2009).
Where two headings read alike, the source gives them in different places.

Molecular target: T1, ADMP (ADAMTS-4-5) (Homo sapiens, UniProt O75173)
T1 construct: purchased Calbiochem PF113
T1 sequence (O75173 213-837): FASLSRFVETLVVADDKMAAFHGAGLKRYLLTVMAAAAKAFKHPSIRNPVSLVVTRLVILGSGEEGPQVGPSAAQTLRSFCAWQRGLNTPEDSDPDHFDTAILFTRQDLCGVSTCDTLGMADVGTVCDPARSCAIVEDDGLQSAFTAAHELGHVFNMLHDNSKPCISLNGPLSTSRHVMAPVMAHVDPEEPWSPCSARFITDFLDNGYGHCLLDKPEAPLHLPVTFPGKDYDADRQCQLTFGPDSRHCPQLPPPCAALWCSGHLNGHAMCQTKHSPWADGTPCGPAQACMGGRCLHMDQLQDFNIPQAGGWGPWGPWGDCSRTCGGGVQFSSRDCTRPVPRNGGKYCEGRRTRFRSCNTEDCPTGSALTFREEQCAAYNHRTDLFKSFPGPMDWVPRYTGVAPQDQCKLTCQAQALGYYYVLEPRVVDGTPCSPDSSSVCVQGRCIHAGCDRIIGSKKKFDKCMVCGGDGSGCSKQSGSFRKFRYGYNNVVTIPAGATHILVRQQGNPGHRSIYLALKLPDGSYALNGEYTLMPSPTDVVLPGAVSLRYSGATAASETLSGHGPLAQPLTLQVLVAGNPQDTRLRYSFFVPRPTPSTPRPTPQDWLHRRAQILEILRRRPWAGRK
Assay: ADMP activity assay (procedures of WO00/05256)
Format: biochemical
Excerpt: The procedures of International Patent Publication WO00/05256 (published Feb. 3, 2000) were followed for detection of ADMP Activity and for measuring the IC50 of the compounds of the present invention. This was indicative of activity against a desintgrin and metallopropeinase thrombo spondin 4 and 5 (ADAMTS-4-5).
The enzyme was purchased commercially from Calbiochem (Cat# PF113) and the peptide substrate described in the patent was custom-ordered from AnaSpec.

[1] = read-out: IC50 rating (ADMP inhibitory activity)
[2] = read-out: IC50 (ADMP inhibition)

SMILES | IC50 [1] [µM] | IC50 [µM] | IC50 [2] [µM]
O=C(NCc1ccc(C(F)(F)F)cc1)[C@H](O)[C@@H](O)C(=O)N1CCc2ccccc2C1 [Compound 180] | 0.25 to 1 | – | –
COc1ccccc1N1CCN(C(=O)[C@H](O)[C@@H](O)C(=O)N[C@@H](C)c2ccc(Br)cc2)CC1 [Compound 164] | 0.25 to 1 | – | –
C[C@H](NC(=O)[C@H](O)[C@@H](O)C(=O)N1CCc2c([nH]c3ccccc23)C1)c1ccc(Br)cc1 [Compound 169] | 0.25 to 1 | – | –
CN(C)CCN(C)C(=O)[C@H](O)[C@@H](O)C(=O)NCc1ccc(C(F)(F)F)cc1 [Compound 127] | > 5 | – | –
C[C@H](NC(=O)[C@H](O)[C@@H](O)C(=O)N1CCN(c2ccc(O)cc2)CC1)c1ccc(Br)cc1 [Compound 150] | 1 to 5 | – | –
COc1ccc(N2CCN(C(=O)[C@H](O)[C@@H](O)C(=O)NCCc3cccc(Cl)c3)CC2)cc1 [Compound 131] | 0.25 to 1 | – | –
C[C@H](NC(=O)[C@H](O)[C@@H](O)C(=O)N1CCC2(CC1)C(=O)Nc1ccccc12)c1ccc(Br)cc1 [Compound 152] | 1 to 5 | – | –
COc1ccc(CNC(=O)[C@H](O)[C@@H](O)C(=O)N2CCC(C(C)=O)(c3ccccc3)CC2)cc1 [Compound 108] | – | 0.25 to 1 | –
C[C@H](NC(=O)[C@H](O)[C@@H](O)C(=O)N1CCC(S(=O)(=O)c2ccccc2)CC1)c1ccc(Br)cc1 [Compound 148] | < 0.25 | – | 0.047
COc1cccc(N2CCN(C(=O)[C@H](O)[C@@H](O)C(=O)N[C@@H](C)c3ccc(Br)cc3)CC2)c1 [Compound 143] | < 0.25 | – | 0.09
C[C@H](NC(=O)[C@H](O)[C@@H](O)C(=O)N[C@H]1c2ccccc2C[C@H]1O)c1ccc(Br)cc1 [Compound 174] | > 5 | – | –
C[C@H](NC(=O)C(O)C(O)C(=O)N1CCc2ccccc2C1)c1cccc(I)c1 (some centres unmarked) [Compound 219] | 1 to 5 | – | –
